Measurements as given in PubChem BioAssay AID488823 (NMMLSC, 2010).

Test system: S. cerevisiae LAP4-GFP strain, flow cytometry fluorescence
Assay: yeast LAP4 reporter analogs, concentration series – cell-based, cherry pick 3, flow cytometry, SAR follow-up (AID 488823)

- EC50: 5.38 µM
Structure (SMILES): Cc1ccc2c(Cl)cc(Cl)c(O)c2n1
